Results taken from patent publication US7651978B2, “Selective herbicides based on a substituted phenylsulphonylaminocarbonyl-triazolinone” (Arysta LifeScience North America, LLC, priority 1998, dated 2010).

Tests used:
Format in all cases: in vivo
[1] = system: weeds, such as Agropyron, Alopecurus, Avena, Bromus, Lolium, Setaria and Veronica; test: Post-emergence test/greenhouse, summary over weeds; details: cf. Table B1
Experimental: Post-Emergence Test/Greenhouse [table] To produce a suitable preparation of active compound, 1 part by weight of active compound is mixed with the stated amount of solvent, the stated amount of emulsifier is added and the concentrate is diluted with water to the desired concentration. Test plants which have a height of 5-15 cm are sprayed with the preparation of active compound such that the particular amounts of active compound desired are applied per unit area. The concentration of the spray liquor is chosen so that the particular amounts of active compound desired are applied in 500 ml of water/ha. After three weeks, the degree of damage to the plants is assessed in % damage in comparison to the development of the untreated control. […] A considerable superiority of (I)-Na-salt (at 125 g/ha) over the comparative compounds (G) and (H) (in each case at 250 g/ha!) is shown in Table B2.

[2] = system: weeds, such as Alopecurus, Avena, Bromus, Digitaria, Echinochloa, Matricaria, Polygonum and Setaria; test: Pre-emergence test/greenhouse, summary over weeds; details: cf. Table A1
Experimental: Pre-Emergence Test/Greenhouse Solvent: 5 parts by weight of acetone Emulsifier: 1 part by weight of alkylaryl polyglycol ether To produce a suitable preparation of active compound, 1 part by weight of active compound is mixed with the stated amount of solvent, the stated amount of emulsifier is added and the concentrate is diluted with water to the desired concentration. Seeds of the test plants are sown in normal soil. After about 24 hours, the soil is sprayed with the preparation of active compound such that the particular amount of active compound desired is applied per unit area. The concentration of the spray liquor is chosen so that the particular amount of active compound desired is applied in 500 ml of water per hectare. After three weeks, the degree of damage to the plants is assessed in % damage in comparison to the development of the untreated control. […] Table A1). The considerable superiority of (I)-Na-salt over the comparative compound (G) is shown in Table A2 [“ai.”=“active ingredient”].

Digitaria = test: Pre-emergence test/greenhouse; details: 30 g of ai./ha, after three weeks
Experimental: (§1) Pre-Emergence Test/Greenhouse Solvent: 5 parts by weight of acetone Emulsifier: 1 part by weight of alkylaryl polyglycol ether To produce a suitable preparation of active compound, 1 part by weight of active compound is mixed with the stated amount of solvent, the stated amount of emulsifier is added and the concentrate is diluted with water to the desired concentration. Seeds of the test plants are sown in normal soil. After about 24 hours, the soil is sprayed with the preparation of active compound such that the particular amount of active compound desired is applied per unit area. The concentration of the spray liquor is chosen so that the particular amount of active compound desired is applied in 500 ml of water per hectare. After three weeks, the degree of damage to the plants is assessed in % damage in comparison to the development of the untreated control. The figures denote: • 0%=no effect (like untreated control) • 100%=total destruction

Wheat [3] = test: Pre-emergence test/greenhouse; details: pre-emergence, 30 g of ai./ha, after three weeks; 0%=no effect, 100%=total destruction
Experimental: as §1

Setaria [4] = test: Pre-emergence test/greenhouse; details: after three weeks
Experimental: as §1

Alopecurus [5] = test: Pre-emergence test/greenhouse; details: 504 h, after three weeks, read-out: degree of damage, Alopecurus; for pest or weed control at 30 g/ha: 30 g of ai./ha
Experimental: as §1

Polygonum = test: Pre-emergence test/greenhouse; details: 30 g of ai./ha, after three weeks
Experimental: as §1

Avena [6] = test: Pre-emergence test/greenhouse; details: 504 h, after three weeks, read-out: degree of damage, Avena; for pest or weed control at 30 g/ha: 30 g of ai./ha
Experimental: as §1

Echinochloa = test: Pre-emergence test/greenhouse; details: 30 g of ai./ha, after three weeks
Experimental: as §1

Bromus [7] = test: Pre-emergence test/greenhouse; details: 30 g of ai./ha, after three weeks
Experimental: as §1

Matricaria = test: Pre-emergence test/greenhouse; details: 30 g of ai./ha, after three weeks
Experimental: as §1

Wheat [8] = test: Post-emergence test/greenhouse; details: post-emergence, 60 g ai./ha, after three weeks; 0%=no effect, 100%=total destruction
Experimental: (§2) Post-Emergence Test/Greenhouse [table] To produce a suitable preparation of active compound, 1 part by weight of active compound is mixed with the stated amount of solvent, the stated amount of emulsifier is added and the concentrate is diluted with water to the desired concentration. Test plants which have a height of 5-15 cm are sprayed with the preparation of active compound such that the particular amounts of active compound desired are applied per unit area. The concentration of the spray liquor is chosen so that the particular amounts of active compound desired are applied in 500 ml of water/ha. After three weeks, the degree of damage to the plants is assessed in % damage in comparison to the development of the untreated control. The figures denote: • 0%=no effect (like untreated control) • 100%=total destruction

Setaria [9] = test: Post-emergence test/greenhouse; details: after three weeks
Experimental: as §2

Alopecurus [10] = test: Post-emergence test/greenhouse; details: 504 h, after three weeks, read-out: degree of damage, Alopecurus; for pest or weed control at 60 g/ha: 60 g ai./ha; for pest or weed control at 250 g/ha: 250 g ai./ha
Experimental: as §2

Lolium = test: Post-emergence test/greenhouse; details: 60 g ai./ha, after three weeks
Experimental: as §2

Avena [11] = test: Post-emergence test/greenhouse; details: after three weeks
Experimental: as §2

Bromus [12] = test: Post-emergence test/greenhouse; details: 60 g ai./ha, after three weeks
Experimental: as §2

Agropyron = test: Post-emergence test/greenhouse; details: 60 g ai./ha, after three weeks
Experimental: as §2

Veronica = test: Post-emergence test/greenhouse; details: 60 g ai./ha, after three weeks
Experimental: as §2

| SMILES | herbicidal activity (in words, compared with (I)-Na-salt) [1] | herbicidal activity (in words, compared with (I)-Na-salt) [2] | degree of damage, Digitaria (Digitaria) [%] | degree of damage, Wheat (Wheat [3]) [%] | degree of damage, Setaria (Setaria [4]; 30 g of ai./ha) [%] | pest or weed control at 30 g/ha (Alopecurus [5]) [%] | degree of damage, Polygonum (Polygonum) [%] | pest or weed control at 30 g/ha (Avena [6]) [%] | degree of damage, Echinochloa (Echinochloa) [%] | degree of damage, Bromus (Bromus [7]) [%] | degree of damage, Matricaria (Matricaria) [%] | degree of damage, Wheat (Wheat [8]) [%] | degree of damage, Setaria (Setaria [9]; 60 g ai./ha) [%] | pest or weed control at 60 g/ha (Alopecurus [10]) [%] | degree of damage, Lolium (Lolium) [%] | degree of damage, Avena (Avena [11]; 60 g ai./ha) [%] | degree of damage, Bromus (Bromus [12]) [%] | degree of damage, Agropyron (Agropyron) [%] | degree of damage, Veronica (Veronica) [%] | degree of damage, Setaria (Setaria [9]; 250 g ai./ha) [%] | also measured |
| --- | --- | --- | --- | --- | --- | --- | --- | --- | --- | --- | --- | --- | --- | --- | --- | --- | --- | --- | --- | --- | --- |
| CCn1c(OC)nn(C(=O)NS(=O)(=O)c2ccccc2OC(F)(F)F)c1=O [(A), 2-(2-Trifluoromethoxy-phenylsulphonylaminocarbonyl)-4-ethyl-5-methoxy-2,4-dihydro-3H-1,2,4-triazol-3-one] | considerably weaker herbicidal activity | considerably weaker herbicidal activity | 0 | 0 | 60 | 20 | 0 | 0 | 50 | 40 | 0 | 0 | 40 | 0 | 0 | 0 | 40 | 0 | – | – | – |
| COn1c(C)nn(C(=O)NS(=O)(=O)c2ccccc2OC(F)(F)F)c1=O [(C), 2-(2-Trifluoromethoxy-phenylsulphonylaminocarbonyl)-4-methoxy-5-methyl-2,4-dihydro-3H-1,2,4-triazol-3-one] | considerably weaker herbicidal activity | considerably weaker herbicidal activity | 0 | 0 | 0 | 0 | 0 | 0 | 0 | 0 | 0 | 0 | 0 | 0 | 0 | 0 | 0 | 0 | 0 | – | – |
| COc1nn(C(=O)NS(=O)(=O)c2ccccc2OC(F)F)c(=O)n1C [(E), 2-(2-Difluoromethoxy-phenylsulphonylaminocarbonyl)-4-methyl-5-methoxy-2,4-dihydro-3H-1,2,4-triazol-3-one] | considerably weaker herbicidal activity | considerably weaker herbicidal activity | 40 | 0 | 80 | 50 | 60 | 30 | 30 | 0 | 0 | 0 | – | 20 | 20 | 70 | 0 | 60 | 30 | – | – |
| COc1nn(C(=O)NS(=O)(=O)c2ccccc2OC(F)(F)C(F)F)c(=O)n1C [(G), 2-[2-(1,1,2,2-Tetrafluoroethoxy)-phenylsulphonylaminocarbonyl]-4-methyl-5-methoxy-2,4-dihydro-3H-1,2,4-triazol-3-one] | – | – | – | – | – | – | – | – | – | – | – | – | – | – | – | – | – | – | – | 30 | degree of damage, Setaria (Setaria [4]; 250 g ai./ha): 50%; pest or weed control at 250 g/ha (Alopecurus [5]; 250 g ai./ha): 50%; pest or weed control at 250 g/ha (Avena [6]; 250 g ai./ha): 0%; pest or weed control at 250 g/ha (Alopecurus [10]): 30%; degree of damage, Avena (Avena [11]; 250 g ai./ha): 0% |
| COc1nn(C(=O)NS(=O)(=O)c2ccccc2OC(F)(F)C(F)(F)F)c(=O)n1C [(H), 2-[2-(Pentafluoroethoxy)-phenylsulphonylaminocarbonyl]-4-methyl-5-methoxy-2,4-dihydro-3H-1,2,4-triazol-3-one] | – | – | – | – | – | – | – | – | – | – | – | – | – | – | – | – | – | – | – | 20 | pest or weed control at 250 g/ha (Alopecurus [10]): 40%; degree of damage, Avena (Avena [11]; 250 g ai./ha): 80% |
